Assay results: ChEMBL document CHEMBL3132845, “Design and discovery of 4-anilinoquinazoline ureas as multikinase inhibitors targeting BRAF, VEGFR-2 and EGFR” (Medchemcomm, 2013)
Blank lines part the entries; values can stand above or below the molecule they belong to.

Experiments:
[1] = molecular target: Serine/threonine-protein kinase B-raf (Homo sapiens, UniProt P15056, V600E); assay: Inhibition of BRAF V600E mutant (unknown origin) after 1 hr by LanthaScreen assay
[2] = molecular target: T1, Serine/threonine-protein kinase B-raf (Homo sapiens, UniProt P15056); assay: Inhibition of BRAF (unknown origin) after 1 hr by LanthaScreen assay
T1 sequence (P15056 whole entry): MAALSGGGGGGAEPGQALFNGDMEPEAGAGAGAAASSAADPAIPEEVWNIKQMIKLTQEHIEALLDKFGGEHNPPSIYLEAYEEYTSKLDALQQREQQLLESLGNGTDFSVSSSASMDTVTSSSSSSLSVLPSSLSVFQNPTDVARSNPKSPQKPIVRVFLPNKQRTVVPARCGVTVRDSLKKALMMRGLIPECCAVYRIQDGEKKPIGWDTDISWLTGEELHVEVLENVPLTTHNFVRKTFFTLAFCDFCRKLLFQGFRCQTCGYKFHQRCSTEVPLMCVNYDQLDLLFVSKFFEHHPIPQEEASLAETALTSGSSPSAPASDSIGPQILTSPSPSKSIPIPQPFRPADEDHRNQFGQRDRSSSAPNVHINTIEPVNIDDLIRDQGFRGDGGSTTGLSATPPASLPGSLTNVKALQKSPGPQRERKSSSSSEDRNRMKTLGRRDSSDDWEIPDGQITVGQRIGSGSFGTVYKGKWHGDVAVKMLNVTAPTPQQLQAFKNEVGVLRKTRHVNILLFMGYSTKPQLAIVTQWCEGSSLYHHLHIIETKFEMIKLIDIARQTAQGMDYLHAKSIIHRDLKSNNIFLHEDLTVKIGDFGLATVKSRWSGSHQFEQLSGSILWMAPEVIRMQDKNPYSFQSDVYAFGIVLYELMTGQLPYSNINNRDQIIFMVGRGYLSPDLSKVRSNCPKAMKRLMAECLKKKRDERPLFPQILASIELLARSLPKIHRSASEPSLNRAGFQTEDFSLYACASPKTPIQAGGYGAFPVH

[3] = molecular target: Epidermal growth factor receptor (Homo sapiens, UniProt P00533); assay: Inhibition of EGFR (unknown origin) after 1 hr by Caliper mobility shift assay
Chain of Epidermal growth factor receptor (P00533 whole entry): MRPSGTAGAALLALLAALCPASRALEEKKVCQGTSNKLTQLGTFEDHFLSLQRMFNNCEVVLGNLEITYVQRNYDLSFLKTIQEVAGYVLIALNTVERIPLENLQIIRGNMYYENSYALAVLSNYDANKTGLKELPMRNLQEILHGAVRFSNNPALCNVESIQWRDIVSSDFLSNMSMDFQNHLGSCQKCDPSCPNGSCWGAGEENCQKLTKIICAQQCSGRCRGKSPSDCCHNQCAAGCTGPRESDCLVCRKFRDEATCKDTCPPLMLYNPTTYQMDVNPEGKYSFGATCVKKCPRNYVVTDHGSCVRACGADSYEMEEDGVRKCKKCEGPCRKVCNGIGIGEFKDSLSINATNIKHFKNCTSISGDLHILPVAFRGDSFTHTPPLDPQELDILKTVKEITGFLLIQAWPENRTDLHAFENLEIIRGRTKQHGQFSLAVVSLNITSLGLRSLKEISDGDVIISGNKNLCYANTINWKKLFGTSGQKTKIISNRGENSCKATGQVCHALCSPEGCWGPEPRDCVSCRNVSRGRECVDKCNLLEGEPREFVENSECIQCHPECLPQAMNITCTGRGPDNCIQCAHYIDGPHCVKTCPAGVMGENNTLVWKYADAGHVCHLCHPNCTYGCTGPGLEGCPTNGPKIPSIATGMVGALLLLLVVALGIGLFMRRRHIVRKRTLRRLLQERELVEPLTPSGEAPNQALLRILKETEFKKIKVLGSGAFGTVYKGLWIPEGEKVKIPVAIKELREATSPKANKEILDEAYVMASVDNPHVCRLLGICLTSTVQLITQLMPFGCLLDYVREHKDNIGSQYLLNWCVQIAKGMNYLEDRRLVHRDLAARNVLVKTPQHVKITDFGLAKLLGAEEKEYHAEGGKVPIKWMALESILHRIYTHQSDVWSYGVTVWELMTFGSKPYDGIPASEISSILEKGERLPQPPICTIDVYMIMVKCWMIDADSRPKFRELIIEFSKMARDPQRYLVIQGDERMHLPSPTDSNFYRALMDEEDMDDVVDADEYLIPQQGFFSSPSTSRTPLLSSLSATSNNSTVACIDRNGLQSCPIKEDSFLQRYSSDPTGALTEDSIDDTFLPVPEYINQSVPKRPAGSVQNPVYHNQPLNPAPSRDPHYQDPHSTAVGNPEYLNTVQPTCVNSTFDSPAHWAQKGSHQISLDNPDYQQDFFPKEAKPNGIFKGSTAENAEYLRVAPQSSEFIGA

[4] = molecular target: T2, Vascular endothelial growth factor receptor 2 (Homo sapiens, UniProt P35968); assay: Inhibition of VEGFR2 (unknown origin) after 1 hr by Caliper mobility shift assay
T2 sequence (P35968 whole entry): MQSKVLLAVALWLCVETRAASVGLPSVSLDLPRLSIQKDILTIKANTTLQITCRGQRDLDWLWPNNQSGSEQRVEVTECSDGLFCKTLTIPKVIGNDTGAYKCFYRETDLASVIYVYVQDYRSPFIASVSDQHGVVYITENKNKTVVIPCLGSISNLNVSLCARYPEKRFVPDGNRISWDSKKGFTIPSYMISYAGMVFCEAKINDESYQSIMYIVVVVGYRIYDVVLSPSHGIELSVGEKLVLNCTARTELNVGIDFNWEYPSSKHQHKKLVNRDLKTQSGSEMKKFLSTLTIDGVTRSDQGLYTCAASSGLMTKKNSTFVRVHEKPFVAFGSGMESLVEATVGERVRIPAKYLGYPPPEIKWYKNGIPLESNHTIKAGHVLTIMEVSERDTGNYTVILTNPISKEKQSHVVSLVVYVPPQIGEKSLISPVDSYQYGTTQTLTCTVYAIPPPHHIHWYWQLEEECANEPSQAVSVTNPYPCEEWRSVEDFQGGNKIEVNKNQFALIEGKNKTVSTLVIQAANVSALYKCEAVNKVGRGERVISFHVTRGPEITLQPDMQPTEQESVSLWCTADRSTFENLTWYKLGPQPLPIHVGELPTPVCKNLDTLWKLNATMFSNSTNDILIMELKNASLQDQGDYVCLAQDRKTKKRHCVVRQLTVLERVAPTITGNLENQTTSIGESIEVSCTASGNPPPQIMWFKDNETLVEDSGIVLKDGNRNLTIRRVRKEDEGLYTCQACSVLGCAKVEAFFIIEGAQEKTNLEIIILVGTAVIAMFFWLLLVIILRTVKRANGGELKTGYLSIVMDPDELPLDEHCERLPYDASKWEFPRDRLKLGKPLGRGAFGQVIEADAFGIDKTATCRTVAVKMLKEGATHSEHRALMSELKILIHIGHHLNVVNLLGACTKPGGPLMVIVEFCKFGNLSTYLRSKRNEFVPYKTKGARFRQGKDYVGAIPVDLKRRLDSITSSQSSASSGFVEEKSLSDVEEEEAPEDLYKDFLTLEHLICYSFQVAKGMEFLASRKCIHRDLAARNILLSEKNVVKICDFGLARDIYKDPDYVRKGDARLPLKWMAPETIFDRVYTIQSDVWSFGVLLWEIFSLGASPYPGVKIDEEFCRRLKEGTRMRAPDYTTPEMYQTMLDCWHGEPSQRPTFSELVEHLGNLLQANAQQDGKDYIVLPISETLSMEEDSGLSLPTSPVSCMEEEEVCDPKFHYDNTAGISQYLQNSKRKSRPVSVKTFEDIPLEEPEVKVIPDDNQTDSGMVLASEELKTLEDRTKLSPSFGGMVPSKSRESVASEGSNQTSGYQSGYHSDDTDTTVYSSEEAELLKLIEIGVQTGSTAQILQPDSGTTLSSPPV

[5] = molecular target: T1, Serine/threonine-protein kinase B-raf; assay: Ratio of sorafenib IC50 to compound IC50 for BRAF (unknown origin) after 1 hr by LanthaScreen assay
[6] = molecular target: T2, Vascular endothelial growth factor receptor 2; assay: Ratio of sorafenib IC50 to compound IC50 for VEGFR2 (unknown origin) after 1 hr by Caliper mobility shift assay

Chain of Serine/threonine-protein kinase B-raf (Homo sapiens, UniProt P15056, V600E) (P15056 2-766 V600E limits assumed): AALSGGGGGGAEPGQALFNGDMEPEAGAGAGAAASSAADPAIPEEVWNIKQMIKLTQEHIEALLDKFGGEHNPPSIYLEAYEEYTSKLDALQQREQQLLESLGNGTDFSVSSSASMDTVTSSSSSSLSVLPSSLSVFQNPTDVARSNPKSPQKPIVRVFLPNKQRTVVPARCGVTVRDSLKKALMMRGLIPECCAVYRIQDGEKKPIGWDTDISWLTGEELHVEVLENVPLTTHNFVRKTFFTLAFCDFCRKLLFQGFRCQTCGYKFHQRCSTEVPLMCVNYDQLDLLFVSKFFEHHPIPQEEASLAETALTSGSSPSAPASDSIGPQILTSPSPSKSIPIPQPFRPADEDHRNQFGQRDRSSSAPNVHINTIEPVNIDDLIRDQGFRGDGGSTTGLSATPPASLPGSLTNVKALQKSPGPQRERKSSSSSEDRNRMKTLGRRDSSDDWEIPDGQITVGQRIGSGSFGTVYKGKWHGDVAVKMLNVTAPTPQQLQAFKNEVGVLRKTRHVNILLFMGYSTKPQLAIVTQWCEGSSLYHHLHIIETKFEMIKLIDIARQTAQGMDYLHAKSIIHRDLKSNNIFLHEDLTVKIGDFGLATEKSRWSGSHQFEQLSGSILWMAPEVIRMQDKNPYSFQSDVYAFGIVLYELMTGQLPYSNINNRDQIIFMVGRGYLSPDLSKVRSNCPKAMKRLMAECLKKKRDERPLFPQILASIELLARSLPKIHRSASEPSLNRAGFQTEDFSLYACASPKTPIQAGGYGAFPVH

SMILES: COc1cc2ncnc(Nc3cccc(NC(=O)Nc4cccc(C)c4)c3)c2cc1OCCCN1CCOCC1
IC50 [1]: 54 nM
IC50 [2]: 119 nM
IC50 [3]: 2350 nM
IC50 [4]: 8570 nM

SMILES: COc1cc2ncnc(Nc3cccc(NC(=O)Nc4ccc(F)c(Cl)c4)c3)c2cc1OCCCN1CCOCC1
IC50 [1]: 55 nM
IC50 [2]: 31 nM
Ratio IC50 [5]: 4
IC50 [3]: > 10000 nM
IC50 [4]: > 10000 nM

SMILES: COc1cc2ncnc(Nc3cccc(NC(=O)Nc4ccc(Cl)c(C(F)(F)F)c4)c3)c2cc1OCCCN1CCOCC1
IC50 [1]: 75 nM
IC50 [2]: 195 nM
IC50 [3]: 82 nM
IC50 [4]: 213 nM

SMILES: COc1cc2ncnc(Nc3ccc(NC(=O)Nc4ccc(Cl)c(C(F)(F)F)c4)cc3)c2cc1OCCCN1CCOCC1
IC50 [1]: 371 nM
IC50 [2]: 539 nM
IC50 [3]: 285 nM
Ratio IC50 [6]: 3
IC50 [4]: 17 nM

Continued, values first:

IC50 [1]: 58 nM
IC50 [2]: 101 nM
IC50 [3]: 99 nM
IC50 [4]: 75 nM
SMILES: O=C(Nc1cccc(Nc2ncnc3cc(OCCCN4CCN(CCO)CC4)ccc23)c1)Nc1ccc(Cl)c(C(F)(F)F)c1

IC50 [1]: 53 nM
IC50 [2]: 112 nM
IC50 [3]: 188 nM
IC50 [4]: 91 nM
SMILES: CCN(CCO)CCCOc1ccc2c(Nc3cccc(NC(=O)Nc4ccc(Cl)c(C(F)(F)F)c4)c3)ncnc2c1

IC50 [1]: 13 nM
IC50 [2]: 22 nM
Ratio IC50 [5]: 5
IC50 [3]: 165 nM
IC50 [4]: 95 nM
SMILES: CCN(CCO)CCCOc1ccc2c(Nc3cccc(NC(=O)Nc4ccc(F)c(Cl)c4)c3)ncnc2c1

IC50 [1]: 42 nM
IC50 [2]: 72 nM
IC50 [3]: 3320 nM
IC50 [4]: 2170 nM
SMILES: O=C(Nc1cccc(Nc2ncnc3cc(OCCCN4CCOCC4)ccc23)c1)Nc1ccc(F)c(Cl)c1
